Laboratory results: patent US20230295199A1, “PHOSPHOLIPID” (NIPPON FINE CHEMICAL CO., LTD., priority 2021, published 2023)

Columns and labels:
[1] = Particle size and polydispersity index of lipid particles (Zetasizer Nano ZS); type: physicochemical; details: siRNA lipid particles, lipid 1:DPPC:Chol 45:10:45, named phospholipid as lipid 1; diluted 50-fold with RNase-free water
Description: (§1) siRNA was added to 1 mM citrate buffer (pH 4.0), thereby preparing an acidic aqueous solution of siRNA (25° C., siRNA concentration: 71.4 nM). Separately, lipids (lipid 1: DOP-DEDA, DOP-PPZ, or DOR-MPPZ; lipid 2: dipalmitoyl phosphatidylcholine (DPPC); and lipid 3: cholesterol (Chol)) at a molar ratio of 45:10:45 (lipid 1:lipid 2:lipid 3) were added to ethanol, thereby preparing a phospholipid alcohol solution (25° C., lipid concentration: 2.5 mM). A 5-fold volume of the acidic aqueous solution of siRNA was added to the phospholipid alcohol solution (siRNA/lipid molar ratio=1/7000), and a microchannel (KeyChem-Basic, YMC Co., Ltd.) was used to obtain lipid particles. Finally, ethanol was removed by dialysis.
The lipid particles were diluted 50-fold with RNase-free water, and then the particle size and polydispersity index (PDI) were measured with a Zetasizer Nano ZS (Malvern). The lipid. particles were also diluted 50-fold with a buffer (pH=4.0, 5.0, 6.0, or 7.0), and the ζ-potential was then measured.

[2] = siRNA encapsulation efficiency of lipid particles (RiboGreen reagent); type: physicochemical; details: lipid 1:DPPC:Chol 45:10:45, siRNA/lipid molar ratio 1/7000, named phospholipid as lipid 1
Description: as §1
Further, the encapsulation efficiency of RNA was measured in the following manner. The measurement was performed using an RNA assay reagent (RiboGreen reagent, Thermo Fisher Scientific), specifically as described below. […] The plate was shaken for 5 minutes, and the fluorescence intensity in each well was measured. The encapsulation efficiency of siRNA in the lipid particles was calculated using the following equation: the encapsulation efficiency (%)=(the fluorescence intensity of total siRNA−the fluorescence intensity of free siRNA)/(the fluorescence intensity of total siRNA), with the measured fluorescence intensity.

Molecule	Particle size (nm) [1] [nm]	Pdl [1]	siRNA encapsulation efficiency (%)* [2] [%]
CCCCCCCC/C=C\CCCCCCCC(=O)OC[C@H](COP(=O)(O)OCCN1CCNCC1)OC(=O)CCCCCCC/C=C\CCCCCCCC [DOP-PPZ, 1,2-di-(9Z-octadecenoyl)-sn-glycero-3-phosphoethylpiperazine]	79 ± 3	0.35 ± 0.01	94 ± 4
Dioleoylphosphate-Diethylenediamine Conjugate [DOP-DEDA, reference compound]	100 ± 3	0.11 ± 0.06	98 ± 7
